Measurements from patent EP0903341A1, “"Novel ortho-mercaptoaniline compounds"” (Akzo Nobel N.V., priority 1997, dated 1999).
≈ marks a conversion by molar mass, not a printed value.

How the values were obtained:
Entamoeba histolytica = test: Anti-amoebic action in vivo in rats infected in the caecum (cure index); conditions: for cure index: five days
[1] = test system: Entamoeba histolytica 200: NIH or E-32; test: Anti-amoebic action in vitro (axenic culture, minimum inhibitory concentration); type: cell-based; conditions: axenic culture in TYI-S-33 medium, 48 h incubation with compound at 37°C, amoebae counted by microscope, read-out: minimum concentration active in killing the amoeba
Method: Axenic Entamoeba histolytica cultures were grown in glass, screw-capped tubes (16x100 mm) containing about 10 ml complete growth medium TYI-S-33. The tubes were inoculated with 0.5 ml of a 72 h old axenic culture of Entamoeba histolytica 200: NIH or E-32, obtained from an external supplier (Kothari Research Centre, Calcutta, India). After incubation for 24 h at 37°C compounds to be tested were added at desired concentrations. Incubation of the tubes was continued for an additional 48 h. The number of amoebae in the medium were counted by microscopic examination at 100x magnification. The complete growth medium TYI-S-33 medium was prepared by mixing aseptically 9 ml of a nutrient solution, 1 ml of animal serum, 0.3 ml of a vitamin mixture and 0.05 ml of a solution containing the antibiotics streptomycine and benzylpenicillin. The composition of TYI-S-33 medium and method of preparation is described in detail by Diamond (J Parasitology 54:1047-1056, 1968). Test compounds are tested at different concentrations, the highest is 100 µg/ml. Lower concentrations are tested in successive tests until the minimum inhibitory concentration is reached. The reference compounds tinidazole was active in killing the amoeba at a minimum concentration of 1.5 µg/ml. Compound B of this invention was active in killing the amoeba at a minimum concentration of 3.1 µg/ml.

| SMILES | cure index (Entamoeba histolytica; Dose 9 mg/kg oral) | cure index (Entamoeba histolytica; Dose 18.8 mg/kg oral) | cure index (Entamoeba histolytica; Dose 37.5 mg/kg oral) | cure index (Entamoeba histolytica; Dose 75 mg/kg oral) | cure index (Entamoeba histolytica; Dose 100 mg/kg oral) | increase in cure index (in words) (Entamoeba histolytica; doses of 9 or 20 mg/kg per day, oral) | MIC [1] [µg/mL] | cure index (Entamoeba histolytica; Dose 150 mg/kg oral) | cure index (Entamoeba histolytica; Dose 200 mg/kg oral) |
| --- | --- | --- | --- | --- | --- | --- | --- | --- | --- |
| COc1ccc(CCNCCC(=O)N(C)c2ccccc2SC)cc1OC [Compound A, 3-[2-(3,4-dimethoxyphenyl)ethylamino]-N-methyl-N-[(2-methylthio)phenyl]-propionamide] | 23 percentage of the control group | 34 percentage of the control group | 56 ±5 percentage of the control group | 76 ±6 percentage of the control group | 74 ± 10 percentage of the control group | No increase in cure index | – | – | – |
| COc1ccc(CSc2ccccc2N(C)CCCN(C)CCc2ccc(OC)c(OC)c2)cc1 [Compound B, N-[2-(3,4-dimethoxyphenyl)ethyl]-N-methyl-N'-[2-(4-methoxyphenyl)methylthiophenyl]-N'-methyl-1,3-diaminopropane] | – | – | – | – | – | – | 3.1 (≈ 6.27 µM) | – | – |
| CCS(=O)(=O)CCn1c([N+](=O)[O-])cnc1C [Tinidazole, reference compound] | – | – | – | 51 ± 8 percentage of the control group | – | – | 1.5 (≈ 6.07 µM) | 66 ± 5 percentage of the control group | 81 ± 5 percentage of the control group |
